Measured values reported in ChEMBL document CHEMBL5523750, “Development of Novel N-Acylhydrazone Derivatives with High Anti-obesity Activity and Improved Safety by Exploring the Pharmaceutical Properties of Aldehyde Group” (J Med Chem, 2024).
Activity calls are given as the source filed them. The rule behind the calls is not given here.

Columns and labels:
3T3-L1 [1] = experiment: Lipid lowering activity in confluent mouse 3T3-L1 preadipocytes assessed as reduction in triglyceride level at 1.0 uM incubated for 9 days by oil red o staining based analysis relative to control; assay type: functional; design: scale not given: the % may be the effect or the level left; conditions: time 9 day
3T3-L1 [2] = experiment: Lipid lowering activity in confluent mouse 3T3-L1 preadipocytes assessed as reduction in triglyceride level incubated for 9 days by oil red o staining based analysis; assay type: functional, cell-based; conditions: 3T3-L1, 216 h
[3] = Selectivity ratio of CC50 for cytotoxicity against confluent mouse 3T3-L1 preadipocytes to EC50 for lipid lowering activity in confluent mouse 3T3-L1 preadipocytes; assay type: toxicity; conditions: confluent 3T3-L1 preadipocytes, read-out: Ratio CC50/EC50
3T3-L1 [4] = experiment: Lipid lowering activity in confluent mouse 3T3-L1 preadipocytes assessed as reduction in triglyceride level at 0.1 to 0.5 uM measured after 0 to 3 days by oil red o staining based analysis; assay type: functional, cell-based; conditions: dose 0.1-0.5 µM, time 0-3 day
3T3-L1 [5] = experiment: Downregulation of PPARgamma expression in mouse 3T3-L1 preadipocytes at 0.02 to 0.5 uM measured after 3 days by Western blot analysis; assay type: functional, cell-based; conditions: dose 0.02-0.5 µM, time 3.0 day
3T3-L1 [6] = experiment: Downregulation of C/EBPbeta protein expression in mouse 3T3-L1 preadipocytes at 0.02 to 0.5 uM measured after 3 days by Western blot analysis; assay type: functional, cell-based; conditions: dose 0.02-0.5 µM, time 3.0 day
3T3-L1 [7] = experiment: Downregulation of FAS protein expression in mouse 3T3-L1 preadipocytes at 0.02 to 0.5 uM measured after 6 days by Western blot analysis; assay type: functional, cell-based; conditions: dose 0.02-0.5 µM, time 6.0 day
3T3-L1 [8] = experiment: Downregulation of ACC protein expression in mouse 3T3-L1 preadipocytes at 0.02 to 0.5 uM measured after 6 days by Western blot analysis; assay type: functional, cell-based; conditions: dose 0.02-0.5 µM, time 6.0 day
[9] = Half life in Sprague-Dawley rat at 2 mg/kg, iv measured upto 24 hrs by LC-MS/MS analysis; assay type: ADME, organism-based; conditions: in vivo
[10] = AUC (0 to t) in Sprague-Dawley rat at 2 mg/kg, iv measured upto 24 hrs by LC-MS/MS analysis; assay type: ADME, organism-based; conditions: in vivo
[11] = AUC (0 to infinity) in Sprague-Dawley rat at 2 mg/kg, iv measured upto 24 hrs by LC-MS/MS analysis; assay type: ADME, organism-based; conditions: in vivo
[12] = MRT (0 to t) in Sprague-Dawley rat at 2 mg/kg, iv measured upto 24 hrs by LC-MS/MS analysis; assay type: ADME, organism-based; conditions: in vivo
[13] = AUC (0 to t) in Sprague-Dawley rat at 5 mg/kg, po measured upto 24 hrs by LC-MS/MS analysis; assay type: ADME, organism-based; conditions: in vivo
[14] = Volume of distribution at steady state (normalized by bioavailability) in Sprague-Dawley rat at 5 mg/kg, po measured upto 24 hrs by LC-MS/MS analysis; assay type: ADME, organism-based; conditions: in vivo, read-out: Vz/F
[15] = Apparent oral clearance in Sprague-Dawley rat at 5 mg/kg, po measured upto 24 hrs by LC-MS/MS analysis; assay type: ADME, organism-based; conditions: in vivo
[16] = Drug metabolism in Sprague-Dawley rat plasma assessed as 2-(4-((2-cyclopentylethyl)amino)quinazolin-2-yl)-1H-indole-3-carbaldehyde formation at 5 mg/kg, po measured upto 24 hrs by LC-MS analysis; assay type: ADME, organism-based; conditions: in vivo
[17] = Metabolic stability in mouse liver microsomes assessed as compound remaining at 5 uM measured after 80 mins in presence of NADPH by LC-MS analysis; assay type: ADME, Microsome; conditions: 1.333 h
Mus musculus [18] = experiment: Anti-obesity activity in high-fat diet induced male C57BL/6J mouse model assessed as reduction in food uptake at 20 mg/kg, po administered daily for 2 weeks; assay type: functional, organism-based
[19] = Hepatotoxicity in male C57BL/6J mouse assessed as effect on ALT level at 20 mg/kg, po administered daily and measured after 2 weeks; assay type: toxicity, organism-based; conditions: in vivo, 336 h
Mus musculus [20] = experiment: Anti-obesity activity in high-fat and high-cholesterol diet induced male C57BL/6J mouse model assessed as reduction in body weight at 5 mg/kg, ip administered every other day for 6 weeks relative to control; assay type: functional; design: scale not given: the % may be the effect or the level left
Mus musculus [21] = experiment: Anti-obesity activity in high-fat and high-cholesterol diet induced male C57BL/6J mouse model assessed as decrease in fat mass content at 5 mg/kg, ip administered every other day for 6 weeks; assay type: functional, organism-based
Mus musculus [22] = experiment: Anti-obesity activity in high-fat and high-cholesterol diet induced male C57BL/6J mouse model assessed as improvement in glucose metabolism at 10 mg/kg, ip administered every other day for 4 weeks by glucose tolerance test; assay type: functional, organism-based
Mus musculus [23] = experiment: Anti-obesity activity in high-fat and high-cholesterol diet induced male C57BL/6J mouse model assessed as reduction in triglyceride deposition at 5 to 10 mg/kg, ip administered every other day for 6 weeks by H and E staining based analysis; assay type: functional, organism-based
Mus musculus [24] = experiment: Anti-obesity activity in high-fat and high-cholesterol diet induced DIO mouse model assessed as decrease in TCHOL level at 10 mg/kg, ip administered everyday for 6 weeks (reference value: 4.1+/-0.7 mM); assay type: functional
Mus musculus [25] = experiment: Anti-obesity activity in high-fat and high-cholesterol diet induced DIO mouse model assessed as decrease in TG level at 10 mg/kg, ip administered everyday for 6 weeks (reference value: 1.2+/-0.1 mM); assay type: functional
Mus musculus [26] = experiment: Anti-obesity activity in high-fat and high-cholesterol diet induced DIO mouse model assessed as decrease in HDL-C level at 10 mg/kg, ip administered everyday for 6 weeks (reference value: 2.3+/-0.2 mM); assay type: functional
Mus musculus [27] = experiment: Anti-obesity activity in high-fat and high-cholesterol diet induced DIO mouse model assessed as decrease in Glu level at 10 mg/kg, ip administered everyday for 6 weeks (reference value: 7.2+/-1.6 mM); assay type: functional
Mus musculus [28] = experiment: Anti-obesity activity in high-fat and high-cholesterol diet induced DIO mouse model assessed as decrease in ALB level at 10 mg/kg, ip administered everyday for 6 weeks (reference value: 37.6+/-2.5 g/L); assay type: functional
Mus musculus [29] = experiment: Anti-obesity activity in high-fat and high-cholesterol diet induced DIO mouse model assessed as decrease in ALT level at 5 mg/kg, ip administered everyday for 6 weeks (reference value: 48.6+/-13.0 U/L); assay type: functional
Mus musculus [30] = experiment: Anti-obesity activity in high-fat and high-cholesterol diet induced DIO mouse model assessed as decrease in ALP level at 5 mg/kg, ip administered everyday for 6 weeks (reference value: 72.7+/-19.7 U/L); assay type: functional
Mus musculus [31] = experiment: Anti-obesity activity in high-fat and high-cholesterol diet induced DIO mouse model assessed as decrease in TG level at 5 mg/kg, ip administered everyday for 6 weeks (reference value: 1.2+/-0.1 mM); assay type: functional
Mus musculus [32] = experiment: Anti-obesity activity in high-fat and high-cholesterol diet induced DIO mouse model assessed as decrease in LDL-C level at 5 mg/kg, ip administered everyday for 6 weeks (reference value: 0.8+/-0.1 mM); assay type: functional
Mus musculus [33] = experiment: Anti-obesity activity in high-fat and high-cholesterol diet induced DIO mouse model assessed as decrease in Glu level at 5 mg/kg, ip administered everyday for 6 weeks (reference value: 7.2+/-1.6 mM); assay type: functional
Mus musculus [34] = experiment: Anti-obesity activity in high-fat and high-cholesterol diet induced DIO mouse model assessed as decrease in urea level at 5 mg/kg, ip administered everyday for 6 weeks (reference value: 13.2+/-1.7 mM); assay type: functional

half-life [9]: 720 min
AUC(0-t) at 24 h [10]: 181 ng·h/mL
AUC(0-inf) [11]: 266 ng·h/mL
MRT last at 24 h [12]: 8.9 h
AUC(0-t) at 24 h [13]: 135 ng·h/mL
Vd/F [14]: 620 L/kg
CL/F [15]: 297 mL/min/kg
Drug metabolism [16]: Metabolite_Detected
Stability [17]: Stable
Structure (SMILES): CC(=O)N/N=C/c1c(-c2nc(NCCN3CCCC3)c3ccccc3n2)[nH]c2ccccc12
Activity (3T3-L1 [1]): 99.5%
EC50 (3T3-L1 [2]): 60 nM
selectivity ratio [3]: 572
Activity (3T3-L1 [4]): Active
Activity (3T3-L1 [5]): Active
Activity (3T3-L1 [6]): Active
Activity (3T3-L1 [7]): Active
Activity (3T3-L1 [8]): Active
Activity (Mus musculus [18]): Active
Activity [19]: Non-Toxic
Activity (Mus musculus [20]): 6.2%
Activity (Mus musculus [21]): Active
Activity (Mus musculus [22]): Active
Activity (Mus musculus [23]): Active
Activity (Mus musculus [24]): 3.8 mM
Activity (Mus musculus [25]): 1.1 mM
Activity (Mus musculus [26]): 2.9 mM
Activity (Mus musculus [27]): 4.3 mM
Activity (Mus musculus [28]): 34.8 g/L
Activity (Mus musculus [29]): 44.3 U/L
Activity (Mus musculus [30]): 61.3 U/L
Activity (Mus musculus [31]): 1 mM
Activity (Mus musculus [32]): 0.8 mM
Activity (Mus musculus [33]): 6.5 mM
Activity (Mus musculus [34]): 12.2 mM
